Source: ChEMBL document CHEMBL6182949 (J Med Chem, 2025)
pIC50: −log10 of the molar value. Each block holds one compound with its values, some of them ahead of it. Activity calls are given as the source filed them. The rule behind the calls is not given here.

Key:
[1] = target: T1, Protein cereblon/Interleukin-1 receptor-associated kinase 4 (Homo sapiens, UniProt Q9NWZ3+Q96SW2); test: PROTAC activity at CRBN/IRAK4 in human PBMC cells assessed as induction of IRAK4 degradation incubated for 24 hrs by HiBiT lytic reagent based analysis relative to control; format: cell-based
Target sequence in this assay (Q96SW2 whole entry, looked up, one chain of several): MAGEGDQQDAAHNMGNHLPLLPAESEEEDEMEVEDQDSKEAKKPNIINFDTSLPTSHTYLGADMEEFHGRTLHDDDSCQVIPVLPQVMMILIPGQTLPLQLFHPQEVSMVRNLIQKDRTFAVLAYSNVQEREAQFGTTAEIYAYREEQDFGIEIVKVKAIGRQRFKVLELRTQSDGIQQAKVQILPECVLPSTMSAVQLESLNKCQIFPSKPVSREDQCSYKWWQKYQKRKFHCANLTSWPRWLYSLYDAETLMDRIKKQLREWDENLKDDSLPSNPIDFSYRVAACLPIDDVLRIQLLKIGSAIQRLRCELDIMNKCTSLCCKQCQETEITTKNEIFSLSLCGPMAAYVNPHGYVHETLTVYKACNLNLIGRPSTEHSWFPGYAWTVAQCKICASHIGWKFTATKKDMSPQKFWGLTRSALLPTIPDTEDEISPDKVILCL

[2] = Inhibition of LPS-stimulated IL-6 release in human PBMC cells; format: functional, cell-based
[3] = tested on: Mus musculus; test: Anti-psoriasis effect in IMQ-induced C57BL/6 mouse assessed as reduction in cumulative score at 30 mg/kg administered topically twice daily for 6 days and measured after 24 hrs; format: functional, organism-based; details: time 7.0 day
[4] = tested on: Mus musculus; test: Anti-psoriasis effect in IMQ-induced C57BL/6 mouse assessed as reduction in cumulative score at 100 mg/kg administered topically twice daily for 6 days and measured after 24 hrs; format: functional, organism-based; details: time 7.0 day
[5] = tested on: Mus musculus; test: Anti-psoriasis effect in IMQ-induced C57BL/6 mouse assessed as reduction in delta ear thickness at 30 mg/kg administered topically twice daily for 6 days and measured after 24 hrs; format: functional, organism-based; details: time 7.0 day
[6] = tested on: Mus musculus; test: Anti-psoriasis effect in IMQ-induced C57BL/6 mouse assessed as reduction in delta ear thickness at 100 mg/kg administered topically twice daily for 6 days and measured after 24 hrs; format: functional, organism-based; details: time 7.0 day
[7] = target: T1, Protein cereblon/Interleukin-1 receptor-associated kinase 4; test: PROTAC activity at CRBN/IRAK4 in human THP-1 cells assessed as induction of IRAK4 degradation incubated for 24 hrs by HiBiT lytic reagent based analysis; format: cell-based
Target sequence in this assay (Q96SW2 whole entry, one chain of several): as the sequence (Q96SW2 whole entry, looked up, one chain of several) above

[8] = target: T1, Protein cereblon/Interleukin-1 receptor-associated kinase 4; test: PROTAC activity at CRBN/IRAK4 in human THP-1 cells assessed as induction of IRAK4 degradation incubated for 24 hrs by HiBiT lytic reagent based analysis relative to control; format: cell-based
Target sequence in this assay (Q96SW2 whole entry, looked up, one chain of several): as above

[9] = Metabolic stability in human liver microsome assessed as half life at 1 uM measured up to 60 mins in presence of NADPH by LC-MS/MS analysis; format: ADME; details: liver microsomes
[10] = Metabolic stability in dog liver microsome assessed as half life at 1 uM measured up to 60 mins in presence of NADPH by LC-MS/MS analysis; format: ADME, Canis lupus familiaris; details: liver microsomes
[11] = Metabolic stability in mouse liver microsome assessed as half life at 1 uM measured up to 60 mins in presence of NADPH by LC-MS/MS analysis; format: ADME; details: liver microsomes
[12] = target: hERG (Homo sapiens, UniProt Q12809); test: Inhibition of hERG expressed in HEK293 cells at 10 uM by manual patch clamp assay relative to control; format: toxicity, cell-based; details: HEK293 cells expressing hERG
[13] = target: T2, Interleukin-1 receptor-associated kinase 4 (Homo sapiens, UniProt Q9NWZ3); test: Inhibition of IRAK4 (unknown origin)
T2 sequence (Q9NWZ3 whole entry): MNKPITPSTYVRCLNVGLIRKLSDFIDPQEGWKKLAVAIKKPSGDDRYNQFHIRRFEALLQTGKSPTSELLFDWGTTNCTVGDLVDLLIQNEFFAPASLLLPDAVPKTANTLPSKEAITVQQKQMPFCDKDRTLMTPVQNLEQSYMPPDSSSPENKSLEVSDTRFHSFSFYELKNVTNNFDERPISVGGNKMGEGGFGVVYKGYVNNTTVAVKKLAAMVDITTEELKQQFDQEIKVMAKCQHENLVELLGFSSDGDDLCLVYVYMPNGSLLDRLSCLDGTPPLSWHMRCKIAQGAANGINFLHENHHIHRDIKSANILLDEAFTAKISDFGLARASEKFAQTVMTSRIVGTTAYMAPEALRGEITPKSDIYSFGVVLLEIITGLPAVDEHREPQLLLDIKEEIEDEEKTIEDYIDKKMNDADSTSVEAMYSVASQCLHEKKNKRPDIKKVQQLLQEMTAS

Sequence of hERG (Q12809 whole entry): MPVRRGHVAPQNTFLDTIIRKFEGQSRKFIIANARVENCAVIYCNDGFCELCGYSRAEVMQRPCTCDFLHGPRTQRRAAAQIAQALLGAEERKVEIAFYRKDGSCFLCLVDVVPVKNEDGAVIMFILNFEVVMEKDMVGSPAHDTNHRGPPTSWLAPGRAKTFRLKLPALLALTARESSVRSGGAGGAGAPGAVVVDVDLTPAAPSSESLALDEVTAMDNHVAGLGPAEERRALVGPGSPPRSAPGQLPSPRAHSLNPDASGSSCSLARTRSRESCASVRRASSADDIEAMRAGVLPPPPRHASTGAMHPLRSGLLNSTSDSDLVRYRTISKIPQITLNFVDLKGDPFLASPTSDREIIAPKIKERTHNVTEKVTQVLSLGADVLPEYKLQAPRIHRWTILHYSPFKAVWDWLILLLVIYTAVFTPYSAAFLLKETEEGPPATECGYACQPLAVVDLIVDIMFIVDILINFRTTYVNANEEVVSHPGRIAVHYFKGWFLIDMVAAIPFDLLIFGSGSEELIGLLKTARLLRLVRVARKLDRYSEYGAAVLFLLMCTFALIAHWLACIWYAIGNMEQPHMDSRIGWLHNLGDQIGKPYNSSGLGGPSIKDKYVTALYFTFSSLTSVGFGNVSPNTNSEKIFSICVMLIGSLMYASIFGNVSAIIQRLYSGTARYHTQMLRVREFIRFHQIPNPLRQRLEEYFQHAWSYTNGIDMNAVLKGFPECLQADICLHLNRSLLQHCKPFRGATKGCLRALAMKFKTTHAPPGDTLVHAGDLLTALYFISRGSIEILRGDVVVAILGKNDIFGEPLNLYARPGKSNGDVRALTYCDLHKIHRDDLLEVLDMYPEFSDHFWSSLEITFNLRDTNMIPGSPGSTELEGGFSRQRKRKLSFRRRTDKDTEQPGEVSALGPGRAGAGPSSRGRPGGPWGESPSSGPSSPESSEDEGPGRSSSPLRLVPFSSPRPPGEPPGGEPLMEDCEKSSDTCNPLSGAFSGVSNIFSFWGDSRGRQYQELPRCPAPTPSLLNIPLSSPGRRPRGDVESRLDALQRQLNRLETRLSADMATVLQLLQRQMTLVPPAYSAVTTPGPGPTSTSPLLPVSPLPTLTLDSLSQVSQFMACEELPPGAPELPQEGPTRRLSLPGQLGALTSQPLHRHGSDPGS

SMILES: Cn1c(=O)n(C2CCC(=O)NC2=O)c2cccc(C#CCOC3CCN(C[C@H]4CC[C@H](n5cc(NC(=O)c6cnn7ccc(N8C[C@H]9C[C@@H]8CO9)nc67)c(C(F)F)n5)CC4)CC3)c21 (stereo partly drawn) [KT-474]
Emax [1]: 82%
pIC50 [2]: 7.54
Activity [3]: inactive
Activity [4]: inactive
Activity [5]: inactive
Activity [6]: inactive

DC50 [7]: 12 nM
Emax [8]: 38%
half-life at 1 µM [9]: > 3.07 h
half-life at 1 µM [10]: > 3.07 h
half-life at 1 µM [11]: > 3.07 h
SMILES: Cn1c(=O)n(C2CCC(=O)NC2=O)c2cccc(C#CCO[C@H]3CC[C@H](CN4CCC5(CC4)Cc4cc(NC(=O)c6cnn7cccnc67)c(N6CCC(C(=O)O)CC6)cc4O5)CC3)c21 (stereo partly drawn)
inhibition at 10 µM [12]: 43%

pIC50 [13]: 9.04
SMILES: CN1CCC2(CC1)Cc1cc(NC(=O)c3cnn4cccnc34)c(N3CCC(CO)CC3)cc1O2
